Legend:
HIV-2 antibodies = test: ELISA, single peptides identifying HIV-2 positive sera; assay type: binding, human; details: 5 tested
Method: A preferred convenient and classical technique for the determination of antibodies against AIDS virus using a peptide or a peptide mixture of the present invention is an enzyme-linked immunosorbent assay (ELISA). According to this test a peptide or a peptide mixture of the present invention is adsorbed onto the wells of a microtiter plate. The wells are then treated with sera to be tested. After washing, anti-human IgG labeled with peroxidase is added to the wells. The determination of the peroxidase is performed with a corresponding substrate, e.g. with o-phenylene diamine. Also in this procedure the peroxidase can be exchanged by another label, e.g. by a radioactive or fluorescence label.
The cyclic peptides of the present invention and their mixtures with one or more linear peptides were tested in accordance with the ELISA test described previously against a variety of sera, some of which were confirmed positive and others which were confirmed negative.
TABLE 4 provides the results of single peptides which were individually evaluated in identifying known HIV-2 positive sera.
Each well of the microtiter plate is saturated with 100 μl of a solution containing a peptide or mixture of peptides (5 μg/ml) and left overnight. The wells are emptied and washed twice with a washing buffer (Tris, 0.043M; NaCl, 0.5M;thimerosal, 0.01% w/v; Tween 20, 0.05% v/v; pH 7.4). The wells are then saturated with 0.35 ml of washing buffer for 1 hr. at 37° C. and washed once with the same buffer. Serum samples to be analyzed are diluted with specimen buffer (washing buffer plus casein, 0.05% w/v). The wells are rinsed with washing buffer prior to the addition of the diluted serum sample (0.1 ml). These are left to incubate for 1 hr. at room temperature. The wells are then emptied, washed twice rapidly and then once for two minutes with washing buffer. […] The wells are then emptied and washed twice rapidly with washing buffer and then five times in which the buffer was in contact with the well 2 minutes per washing.
The substrate solution (3,3', 5,5'-tetramethylbenzidine, 8 mg per ml of DMSO) is diluted with 100 volumes 0.1M citrate-acetate buffer, pH 5.6 containing 0.1% v/v of 30% H2 O2 and added to each well (0.1 ml per well). After 10 minutes the contents of each well is treated with 0.1 ml 2N H2 SO4 and the optical density read at 450 nm. All determinations are done in duplicate.

HIV-1 antibodies = details: cited from earlier work; for sensitivity: HIV-1 seropositive samples, literature

Molecule | % Positive Sera correctly Identified (HIV-2 antibodies) | also measured
CC(C)C[C@H](NC(=O)[C@H](CCCNC(=N)N)NC(=O)[C@H](C)NC(=O)[C@H](CCC(N)=O)NC(=O)[C@H](CC(=O)O)NC(=O)[C@@H](N)CCC(N)=O)C(=O)N[C@@H](CC(N)=O)C(=O)N[C@@H](CO)C(=O)N[C@@H](Cc1c[nH]c2ccccc12)C(=O)NCC(=O)N[C@H]1CSSC[C@@H](C(=O)N[C@@H](Cc2c[nH]cn2)C(=O)N[C@H](C(=O)N[C@H](C(=O)N[C@H](C(=O)N2CCC[C@H]2C(=O)N[C@@H](Cc2c[nH]c3ccccc23)C(=O)N[C@H](C(=O)N[C@@H](CC(N)=O)C(=O)N[C@@H](CC(=O)O)C(=O)N[C@@H](CO)C(N)=O)C(C)C)C(C)C)[C@@H](C)O)[C@@H](C)O)NC(=O)[C@H](C(C)C)NC(=O)[C@H](CCC(N)=O)NC(=O)[C@H](CCCNC(=N)N)NC(=O)[C@H](Cc2ccccc2)NC(=O)[C@H](C)NC1=O [Peptide 147] | 100% | 
SGKLIC |  | immunoreactivity with HIV-1 positive sera (HIV-1 antibodies; 22 HIV-1 positive sera tested, Gnann et al.): not immunoreactive
7-mer peptide: SGKLIC with a cysteine residue added to the N-terminus (605-611), Gnann et al. |  | sensitivity (HIV-1 antibodies): 48%
CC(=O)N[C@@H](CCC(N)=O)C(=O)N[C@@H](CC(=O)O)C(=O)N[C@@H](CCC(N)=O)C(=O)N[C@@H](C)C(=O)N[C@@H](CCCNC(=N)N)C(=O)N[C@@H](CC(C)C)C(=O)N[C@@H](CC(N)=O)C(=O)N[C@@H](CO)C(=O)N[C@@H](Cc1c[nH]c2ccccc12)C(=O)NCC(=O)N[C@H]1CSSC[C@@H](C(N)=O)NC(=O)[C@H](C(C)C)NC(=O)[C@H](CCC(N)=O)NC(=O)[C@H](CCCNC(=N)N)NC(=O)[C@H](Cc2ccccc2)NC(=O)[C@H](C)NC1=O [Peptide 200] | 100% | 
CC[C@H](C)[C@H](NC(=O)[C@H](CCC(=O)O)NC(=O)[C@@H](NC(=O)[C@@H](N)CC(C)C)C(C)C)C(=O)N[C@H](C(=O)N1CCC[C@H]1C(=O)N[C@H](C(=O)NCC(=O)N[C@@H](Cc1ccccc1)C(=O)N[C@@H](C)C(=O)N1CCC[C@H]1C(=O)N[C@H](C(=O)N[C@@H](CCCCN)C(=O)N[C@@H](CCC(=O)O)C(=O)N[C@@H](CCCCN)C(=O)N[C@@H](CCCNC(=N)N)C(=O)O)[C@@H](C)O)[C@@H](C)CC)[C@@H](C)O [Peptide 204] | 100% | 
CC[C@H](C)[C@H](NC(=O)[C@H](C)NC(=O)[C@@H](NC(=O)[C@@H](NC(=O)[C@@H](N)CCCNC(=N)N)C(C)C)[C@@H](C)O)C(=O)N[C@@H](CCC(=O)O)C(=O)N[C@@H](CCCCN)C(=O)N[C@@H](Cc1ccc(O)cc1)C(=O)N[C@@H](CC(C)C)C(=O)N[C@@H](CCC(N)=O)C(=O)N[C@@H](CC(=O)O)C(=O)N[C@@H](CCC(N)=O)C(=O)N[C@@H](C)C(=O)N[C@@H](CCCNC(=N)N)C(=O)N[C@@H](CC(C)C)C(=O)N[C@@H](CC(N)=O)C(=O)N[C@@H](CO)C(=O)N[C@@H](Cc1c[nH]c2ccccc12)C(=O)NCC(=O)N[C@H]1CSSC[C@@H](C(N)=O)NC(=O)[C@H](C(C)C)NC(=O)[C@H](CCC(N)=O)NC(=O)[C@H](CCCNC(=N)N)NC(=O)[C@H](Cc2ccccc2)NC(=O)[C@H](C)NC1=O [Peptide 146] | 100% | 
CC(C)[C@@H]1NC(=O)[C@H](CCC(N)=O)NC(=O)[C@H](CCCNC(=N)N)NC(=O)[C@H](Cc2ccccc2)NC(=O)[C@H](C)NC(=O)[C@@H](NC(=O)CN)CSSC[C@@H](C(=O)N[C@@H](Cc2c[nH]cn2)C(=O)N[C@H](C(=O)N[C@H](C(=O)N[C@H](C(=O)N2CCC[C@H]2C(=O)N[C@@H](Cc2c[nH]c3ccccc23)C(=O)N[C@H](C(=O)N[C@@H](CC(N)=O)C(=O)N[C@@H](CC(=O)O)C(=O)N[C@@H](CO)C(=O)O)C(C)C)C(C)C)[C@@H](C)O)[C@@H](C)O)NC1=O [Peptide 201] | 100% | 
CC[C@H](C)[C@H](NC(=O)[C@H](C)NC(=O)[C@@H](NC(=O)[C@@H](NC(=O)[C@@H](N)CCCNC(=N)N)C(C)C)[C@@H](C)O)C(=O)N[C@@H](CCC(=O)O)C(=O)N[C@@H](CCCCN)C(=O)N[C@@H](Cc1ccc(O)cc1)C(=O)N[C@@H](CC(C)C)C(=O)N[C@@H](CCC(N)=O)C(=O)N[C@@H](CC(=O)O)C(=O)N[C@@H](CCC(N)=O)C(=O)N[C@@H](C)C(=O)N[C@@H](CCCNC(=N)N)C(=O)N[C@@H](CC(C)C)C(=O)N[C@@H](CC(N)=O)C(=O)N[C@@H](CO)C(=O)N[C@@H](Cc1c[nH]c2ccccc12)C(=O)NCC(=O)N[C@H]1CSSC[C@@H](C(=O)N[C@@H](Cc2c[nH]cn2)C(=O)N[C@H](C(=O)N[C@H](C(=O)N[C@H](C(=O)N2CCC[C@H]2C(=O)N[C@@H](Cc2c[nH]c3ccccc23)C(=O)N[C@H](C(=O)N[C@@H](CC(N)=O)C(=O)N[C@@H](CC(=O)O)C(=O)N[C@@H](CO)C(=O)O)C(C)C)C(C)C)[C@@H](C)O)[C@@H](C)O)NC(=O)[C@H](C(C)C)NC(=O)[C@H](CCC(N)=O)NC(=O)[C@H](CCCNC(=N)N)NC(=O)[C@H](Cc2ccccc2)NC(=O)[C@H](C)NC1=O [Peptide 202] | 100% | 
SGKLICTTAVPWNAS [short synthetic peptide covering residues 606 to 620 of gp41 (HIV-1), U.S. Ser. No. 120,027] |  | sensitivity (HIV-1 antibodies): 89%; specificity (samples correctly identified) (HIV-1 antibodies; U.S. Ser. No. 120,027): 63/63

Source: patent US6214537A, “Synthetic peptides and mixtures thereof for detecting HIV antibodies” (Biochem Immunosystems, Inc., priority 1988, dated 2001)
